Experiments:
[1] = test system: aorta pieces of rat; test: Inhibition of capillary formation in rat aorta model (aorta pieces cultured in collagen gel); type: cell-based; settings: 7th day from addition of sample, listed as C
Method: In a method of screening the antiangiogenic effect, the degree of inhibition to the formation of lumens observed when an aortic fragment of a rat is cultured in a collagen gel was selected as an indicator (Nicosia R. F., Lab. Invest., 63, 115, 1990). Also, for the purpose of analyzing the mechanism of action of the antiangiogenic effect of the resulting compound, measurements were made concerning the effect of inhibiting the growth of endothelial cells by using endothelial cells derived from the human umbilical cord vein and the effect of inhibiting the expression of an adhesion molecules on endothelial cells.
The antiangiogenic potency was evaluated by the inhibition of capillary formation in rat aorta model in which aorta pieces of rat were cultured in collagen gel. That is, the aorta excised from male rat of Sprague-Dawley strain (8-12 weeks age) was washed with a Hanks' solution so that fat tissues around there were removed minutely. The aorta was incised to prepare pieces of 2 mm square and they were allowed to stand in a 24-well plate holding the endothelial cells upside. Then, 500 μl of neutralized Type I collagen (Cell Matrix Type I-A; manufactured by Nitta Gelatin) were poured over each well and allowed to stand at room temperature for about 20 minutes in a clean bench to solidify the gel. After gelling, 500 μl of MCDB 131 medium (manufactured by Chlorella Kogyo) were added thereto followed by incubating in a Co2 incubator (5% CO2) at 37° C. On the next day, the culture medium was exchanged with 500 μl of MCDB 131 medium containing the sample and the incubation was continued. And, at the stage of the 7th day from the addition of the sample, numbers of capillaries formed around the aorta were counted. The IC50 value of each sample is defined as a concentration that the number of blood capillaries is 50% of that observed when no sample was added.

[2] = test system: Endothelial cells derived from human umbilical vein (HUVEC); test: Inhibitory effect of growth of endothelial cells (MTT method); type: cell-based; settings: three days, listed as C
Method: Endothelial cells derived from human umbilical vein (HUVEC; manufactured by Sanko Junyaku) incubated in an EGM medium (manufactured by Sanko Junyaku) were adjusted to 1×10^4 cells/ml and each 100 μl were separately placed on a 96-well plate. After incubating overnight, 100 μl of medium containing sample were added thereto followed by incubating for three days. The cell numbers at that time were measured by MTT method. That is, 50 μl of PBS solution containing 0.33% of 3-(4,5-dimethylthiazol-2-yl)-2,5-diphenyltetrazolium bromide (MTT) was added thereto and incubation was continued for further 3-4 hours. After the supernatant liquid of the culture was removed, 100 μl of DMSO was added to dissolve a formazane which was formed in the cells and the absorbance at the wave length of 460 nm was measured by use of plate reader. The IC50 value is defined as a concentration that the absorbance was 50% of that observed when no sample was added.

[3] = test system: VCAM-1; test: Inhibition of TNFα-induced expression of adhesion molecule VCAM-1 on endothelial cells; type: cell-based, human; settings: HUVEC, TNFα 1 ng/ml, 4 hours; listed as C
Method: (§1) Endothelial cells derived from human umbilical vein (HUVEC) were cultured on a 96-well plate until they were fallen in a confluent state. The culture broth was removed. After 150 μl of a new culture broth was added to each well, 20 μl of a sample solution was added thereto. After 15 minutes, 30 μl of TNFα was added such that the final concentration became 1 ng/ml and it was incubated at 37° C. for 4 hours in a 5% CO2 incubator. Next, the culture broth was removed and the cells were washed twice with a phosphate buffer (PBS). Further, a PBS solution containing 0.025% glutaraldehyde was added and the well was allowed to stand at room temperature for 6 minutes to fix the cells. After the cells were immobilized, they were washed twice with 200 μl of phosphate buffer (PBSA) containing 0.25% BSA. Thereafter 100 μl of a PBSA solution containing 1 μg/ml of mouse anti-human VCAM-1 (R&D systems) or a mouse anti-human E-selectin antibody (R&D systems) was added to each well. The well was allowed to stand at room temperature for 30 minutes and then the cells were again washed. A PBSA solution containing 100 μl of peroxidase-conjugated goat anti-mouse antibody (Cosmo Bio Co., Ltd.) was added to the well. Then the well was allowed to stand at room temperature for 30 minutes and thereafter the cells were washed. In succession, 100 μl of 3,3*,5,5*-tetramethylbenzyidine (TMB) substrate solution was added to develop a color. Next, the coloring was stopped by 100 μl of 1M phosphoric acid to measure the absorbance at 450 nm.

[4] = test system: E-selectin; test: Inhibition of TNFα-induced expression of adhesion molecule E-selectin on endothelial cells; type: cell-based, human; settings: HUVEC, TNFα 1 ng/ml, 4 hours; listed as C
Method: as §1

[5] = test system: angiogenesis induced by human colorectal cancer (WiDr cells); test: Antiangiogenic effect in vivo: chamber with WiDr cells transplanted to mouse, 51Cr-labeled erythrocytes; settings: 1 mg/kg intraperitoneally once a day for 4 days
Method: Whether angiogenesis induced by human colorectal cancer (WiDr cells) was inhibited by administering VD1207C or not was studied to examine the antiangiogenic effect of VD1207C in vivo.
A chamber in which the WiDr cells were sealed was transplanted to a mouse. Then VD1207C was administered intraperitoneally at each dose of 0.5, 1.0 and 2.0 mg/kg for 4 days once a day. The amount of angiogenesis induced by the tumor was measured quantitatively by measuring the radiao activity in the skin touching with the chamber as the amount of blood by statically injecting erythrocytes labeled by ^51Cr. In FIG. 1, vascular volume generated at each dose of VD1207C is shown.

[6] = test system: mouse colon cancer (Colon 38-OT-7); test: Anti-metastatic effect: hepatic metastasis of mouse colon cancer transplanted to caecum; type: in vivo; settings: for Toxic death: n 8
Method: The mouse colon cancer (Colon 38-OT-7) having a high incidence of the hepatic metastasis was transplanted to the mouse caecum. Then VD1207C was administered intraperitoneallyat each dose of 0.5, 1.0 and 2.0 mg/kg once a day since 12 days after the transplantation.

[7] = Safety of VD1207 analogues, intraperitoneal administration over 4 days; type: in vivo; design: key to Blood (WBC) / Blood (PLAT) / Biochemistry (UN) / Biochemistry (GPT) / Weight (liver) / Weight (kidney) / Weight (lung) / Weight (spleen) / Body weight / Blood (RBC): —: “-” indicates no abnormality; “↑” and “↓” indicate an increase and a decrease, respectively; “↑” and “↓” indicate an increase and a decrease, respectively
Method: Each of VD1207B, C, D, E, F and G2 was continuously administered intraperitoneally at each dose of 1 mg/kg and 2 mg/kg over 4 days to examine the safety of VD1207 analogues.

[8] = Solubility (analysis data); type: physicochemical
[9] = test system: collagen arthritis model; settings: Peacock D J., J. Exp. Med. 175, 1135-8, 1992; cited from earlier work
[10] = 1 mg/kg i.p. 4 days, listed as C
[11] = 2 mg/kg i.p. 4 days, listed as C

For CCCC(C(=O)c1cc(C(OC)C(C)C)c(O)c(C=O)c1O)C1CC(O)C2(OC2CC)C(O)O1 (single isomer, unassigned) [VD1207 C], the “IC50 (number of blood capillaries 50% of that without sample)” value [1] was 0.050 µg/mL, the “IC50 (growth of endothelial cells, absorbance 50% of no sample)” value [2] was 0.08 µg/mL and the “VCAM-1 (IC50 of expression)” value [3] was 0.85 µg/mL. The “E-select (IC50 of expression)” value [4] was 1.23 µg/mL, the “Angiogenesis induced by WiDr cells (vascular volume)” value [5] was “inhibited with a significant difference” and the Hepatic metastasis incidence ([6]; 0.5 mg/kg i.p. once a day) was 5/7. The “No. of metastatic nodules (mean ± STD)” value ([6]; 0.5 mg/kg i.p. once a day) was “(9.7 ± 12.2)”, the “No. of metastatic nodules, median” value ([6]; 0.5 mg/kg i.p. once a day) was 1.0 and the Toxic death ([6]; 0.5 mg/kg i.p. once a day) was 1. For the same compound, the Hepatic metastasis incidence ([6]; 1.0 mg/kg i.p. once a day) was 3/6, the “No. of metastatic nodules (mean ± STD)” value ([6]; 1.0 mg/kg i.p. once a day) was “(1.2 ± 1.6)” and the “No. of metastatic nodules, median” value ([6]; 1.0 mg/kg i.p. once a day) was 0.5. The Toxic death ([6]; 1.0 mg/kg i.p. once a day) was 2, the Hepatic metastasis incidence ([6]; 2.0 mg/kg i.p. once a day) was 0/5 and the “No. of metastatic nodules (individual animals)” value ([6]; 2.0 mg/kg i.p. once a day) was “no metastatic nodules was observed at all”. The “No. of metastatic nodules, median” value ([6]; 2.0 mg/kg i.p. once a day) was 0, the Toxic death ([6]; 2.0 mg/kg i.p. once a day) was 3 and the “Number of the metastatic nodules” value ([6]; dose ranging from 0.5 mg/kg) was “decreased the number of the metastatic nodules”. The “Weight of each of the liver, kidney and lung (autoptic findings)” value ([7]; 1 mg/kg and 2 mg/kg i.p. 4 days) was “increase”, the “Biochemistry (GPT)” value ([7]; 1 mg/kg i.p. 4 days) was “—” and the “Biochemistry (UN)” value ([7]; 1 mg/kg i.p. 4 days) was “—”. The “Blood (PLAT)” value ([7]; 1 mg/kg i.p. 4 days) was “—”, the “Blood (RBC)” value ([7]; 1 mg/kg i.p. 4 days) was “—” and the “Blood (WBC)” value ([7]; 1 mg/kg i.p. 4 days) was “—”. For the same compound, the Body weight ([7]; 1 mg/kg i.p. 4 days) was “—”, the “Change in weight (FIGS. 2a and 2b)” value ([7]; 1 mg/kg i.p. 4 days) was “inhibition to an increase in weight” and the “Weight (liver)” value ([7]; 1 mg/kg i.p. 4 days) was “↑”. For the same compound, the “Weight (spleen)” value ([7]; 1 mg/kg i.p. 4 days) was “—”, the “Weight (kidney)” value [7, 10] was “↑” and the “Weight (lung)” value [7, 10] was “↑”. For the same compound, the “Change in weight (FIGS. 2a and 2b)” value ([7]; 2 mg/kg i.p. 4 days) was “reduction in weight”, the “Blood (PLAT)” value [7, 11] was “↓” and the Body weight [7, 11] was “↓”. For the same compound, the “Weight (kidney)” value [7, 11] was “↑”, the “Weight (lung)” value [7, 11] was “↑” and the “Solubility in ethyl acetate, chloroform and dimethyl sulfoxide” value [8] was “soluble”. For the same compound, the “Solubility in neutral water” value [8] was “insoluble”.
In the case of CO[C@@H]1[C@H](OC(=O)NC(=O)CCl)CC[C@]2(CO2)[C@H]1[C@@]1(C)O[C@@H]1CC=C(C)C [AGM-470], the “Arthritis in a collagen arthritis model” value [9] is listed as “inhibits arthritis”.
